Source: US10947271B2, “Antibacterial agents” (THE UNIVERSITY OF QUEENSLAND, priority 2014, dated 2021)

Tests used:
[1] = tested on: MRSA (Strain ATCC 43300); experiment: Murine thigh infection model (MRSA); assay type: in vivo, Staphylococcus aureus; details: neutropenic CD1 mice
Procedure: Summary: Adult (8 week old) female CD1 mice were made neutropenic by two injections of cyclophosphamide 4 days and 1 day prior to infection. An inoculum of 10^5 cfu MRSA (Strain ATCC 43300) was injected intramuscularly into both left and right thighs of all mice. […] After an additional two hours, a 50 μL sample of blood was obtained from the tail bleed to analyse for presence of antibiotic compound. […] Thighs were then removed, weighed and homogenised in a fixed volume of saline. The homogenate solution was filtered, diluted and seeded onto agar plates, which were incubated overnight at 37° C. Colony counts were used to establish the cfu in the thigh homogenates, the cfu/thigh, and the cfu/g of thigh.
Compound preparation: Cyclophosphamide monohydrate (Sigma) was dissolved in sterile saline to a concentration of 30 mg/mL. Likewise, vancomycin (Sigma) and MCC compounds were also dissolved in sterile saline to a final concentration of 60 mg/mL and 18.5 mg/mL respectively. All compounds were prepared in low binding Eppendorf tubes and kept at −20° C. until used.
In vivo experimental assay: Eight week old female outbred CD1 mice (UQBR-AIBN) were rendered neutropenic by injecting two doses of cyclophosphamide intraperitoneally 4 days (150 mg/kg) and 1 day (100 mg/kg) prior to experimental infection. The infection model using MRSA was established by intramuscular injection of 50 μL of early-log-phase bacterial MRSA suspension (around 2×10^6 cfu/mL) in saline into both thigh muscles. […] Untreated animals received equivalent volume of saline (Baxter). The mice were monitored for signs of normal behaviour (i.e. grooming, eating, drinking, sleeping, and alertness) during and following dosing. Two hours after saline/antibiotic treatment, 0.05 mL of blood was collected by tail incision. 24 hours after MRSA infection, mice were euthanized and blood collected from the heart by cardiac puncture (saline group) or by tail incision (Vancomycin and MCC compound treated groups) as outlined in FIG. 1. For each mouse, both thighs were collected aseptically by cutting the leg at the hip and knee, placed in 10 mL of cold sterile saline and the individual weight of each thigh recorded.
Preparation of injectable MRSA solution: An MRSA subculture bacterial isolate (ATCC43300) was taken from the storage at −80° C. and freshly seeded on agar plates for overnight (O/N) growth. From the O/N culture preparation, a single colony was diluted into 10-12 mL of Mueller Hinton broth (MHB) and incubated O/N at 37° C. A log-phase subculture was obtained by adding 100 μL of O/N subculture in 10 mL MHB and incubated for a further 2-3 hours. Finally, the OD600 value of the bacterial suspension was determined and the colony forming units per millilitre (cfu/mL) extrapolated. A full dilution of the bacterial cell suspension in saline was achieved by washing (3220×g for 10 min) and the OD600 in saline determined. The suspension was then diluted out accordingly in order to achieve a 2×10^6 cfu/mL solution (10^5 cfu in 50 μL/thigh).
Thus, 10 μL of the injectable MRSA suspension was diluted down to 10-1000 fold, each dilution plated out onto agar plates and incubated at 37° C. for 24 hours.
Thigh homogenates and CFU determination: Thighs were homogenized at 20,000 rpm for 15 seconds using a Polytron MR2500E using a […] probe (all Kinematica).

[2] = tested on: Enterococcus faecium MDR Van A ATCC 51559; experiment: MIC assay, E. faecium MDR Van A ATCC 51559; assay type: cell-based; details: 24 h incubation, visual reading
Procedure, shortened: (§1)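 Mid-log cultures in MHB were added at 5×10e5 CFU/mL to compounds diluted twofold from 8 to 0.003 μg/ml. Visual inspection after 24 h incubation at 37° C. gave the MIC, the lowest concentration without visible growth.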

[3] = tested on: Streptococcus pneumoniae MDR ATCC 700677; experiment: MIC assay, S. pneumoniae MDR ATCC 700677; assay type: cell-based; details: 24 h incubation, visual reading
Procedure, shortened: as §1

[4] = tested on: Staphylococcus aureus MRSA ATCC 43300; experiment: MIC assay, S. aureus MRSA ATCC 43300; assay type: cell-based; details: 24 h incubation, visual reading
Procedure, shortened: as §1

[5] = single subcutaneous dose 10 mg/kg

Compound | Average Reduction log Δcfu MRSA/thigh after 26 h [1, 5] | Minimum Inhibitory Concentration (MIC) E. faecium ATCC51559 [2] | Minimum Inhibitory Concentration (MIC) S. pneumoniae ATCC 700677 [3] | Minimum Inhibitory Concentration (MIC) Staph. aureus ATCC43300 [4] | Average Reduction log Δcfu MRSA/thigh after 26 h ([1]; single subcutaneous dose 50 mg/kg) | Average Reduction log Δcfu MRSA/thigh after 26 h ([1]; single subcutaneous dose 25 mg/kg)
CCCCCCCCCC(=O)N[C@@H](CCCCN)C(=O)NCCNC(=O)[C@H]1NC(=O)[C@H]2NC(=O)[C@H](NC(=O)[C@@H]3NC(=O)[C@H](CC(N)=O)NC(=O)[C@H](NC(=O)[C@@H](CC(C)C)NC)[C@H](O)c4ccc(c(Cl)c4)Oc4cc3cc(c4O[C@@H]3O[C@H](CO)[C@@H](O)[C@H](O)[C@H]3O[C@H]3C[C@](C)(N)[C@H](O)[C@H](C)O3)Oc3ccc(cc3Cl)[C@H]2O)c2ccc(O)c(c2)-c2c(O)cc(O)cc21 [MCC_005162] | xxx (xxx = 4-6) | xx (xx = 1-4) | xxxx (xxxx = 0.01-<0.1) | xxxx (xxxx = 0.01-<0.1) |  | 
CNC(CC(C)C)C(=O)NC1C(=O)NC(CC(N)=O)C(=O)NC2C(=O)NC3C(=O)NC(C(=O)NC(C(=O)NCCCNC(=O)C(CCCCN)NC(=O)C(CCCCN)NC(=O)CC4CCCCC4)c4cc(O)cc(O)c4-c4cc3ccc4O)C(O)c3ccc(c(Cl)c3)Oc3cc2cc(c3OC2OC(CO)C(O)C(O)C2OC2CC(C)(N)C(O)C(C)O2)Oc2ccc(cc2Cl)C1O (stereo not shown) [MCC_005363] |  | x (x = >4) | xxx (xxx = 0.1-<1) | xxx (xxx = 0.1-<1) | xxx (xxx = 4-6) | 
CNC(CC(C)C)C(=O)NC1C(=O)NC(CC(N)=O)C(=O)NC2C(=O)NC3C(=O)NC(C(=O)NC(C(=O)NCCCNC(=O)C(CCCCN)NC(=O)C(CCCCN)NC(=O)c4ccc(Oc5ccccc5)cc4)c4cc(O)cc(O)c4-c4cc3ccc4O)C(O)c3ccc(c(Cl)c3)Oc3cc2cc(c3OC2OC(CO)C(O)C(O)C2OC2CC(C)(N)C(O)C(C)O2)Oc2ccc(cc2Cl)C1O (stereo not shown) [MCC_005364] | xx (xx = 2-4) | xx (xx = 1-4) | xxxx (xxxx = 0.01-<0.1) | xxxxx (xxxxx = <0.01) |  | 
CNC(=O)[C@H](CCCCNC(=O)[C@H]1NC(=O)[C@H]2NC(=O)[C@H](NC(=O)[C@@H]3NC(=O)[C@H](CC(N)=O)NC(=O)[C@H](NC(=O)[C@@H](CC(C)C)NC)[C@H](O)c4ccc(c(Cl)c4)Oc4cc3cc(c4O[C@@H]3O[C@H](CO)[C@@H](O)[C@H](O)[C@H]3O[C@H]3C[C@](C)(N)[C@H](O)[C@H](C)O3)Oc3ccc(cc3Cl)[C@H]2O)c2ccc(O)c(c2)-c2c(O)cc(O)cc21)NC(=O)[C@H](CCCCN)NC(=O)[C@H](CCCCN)NC(=O)[C@H](CCCCNC(=O)c1ccc(Oc2ccccc2)cc1)NC(=O)c1ccc(Oc2ccccc2)cc1 [MCC_000310] |  | xxx (xxx = 0.1-<1) | xxxxx (xxxxx = <0.01) | xxxxx (xxxxx = <0.01) |  | x (x = 0-2)
CCCCCCCCC(=O)N[C@@H](CCCCN)C(=O)N[C@@H](CCCCN)C(=O)N[C@@H](CCCCNC(=O)[C@H]1NC(=O)[C@H]2NC(=O)[C@H](NC(=O)[C@@H]3NC(=O)[C@H](CC(N)=O)NC(=O)[C@H](NC(=O)[C@@H](CC(C)C)NC)[C@H](O)c4ccc(c(Cl)c4)Oc4cc3cc(c4O[C@@H]3O[C@H](CO)[C@@H](O)[C@H](O)[C@H]3O[C@H]3C[C@](C)(N)[C@H](O)[C@H](C)O3)Oc3ccc(cc3Cl)[C@H]2O)c2ccc(O)c(c2)-c2c(O)cc(O)cc21)C(=O)O [MCC_005226] | x (x = 0-2) | x (x = >4) | xxx (xxx = 0.1-<1) | xxx (xxx = 0.1-<1) |  | 
CCCCCCCC(=O)N[C@@H](CCCCN)C(=O)NCCCNC(=O)[C@H]1NC(=O)[C@H]2NC(=O)[C@H](NC(=O)[C@@H]3NC(=O)[C@H](CC(N)=O)NC(=O)[C@H](NC(=O)[C@@H](CC(C)C)NC)[C@H](O)c4ccc(c(Cl)c4)Oc4cc3cc(c4O[C@@H]3O[C@H](CO)[C@@H](O)[C@H](O)[C@H]3O[C@H]3C[C@](C)(N)[C@H](O)[C@H](C)O3)Oc3ccc(cc3Cl)[C@H]2O)c2ccc(O)c(c2)-c2c(O)cc(O)cc21 [MCC_005202] | xx (xx = 2-4) | x (x = >4) | xxx (xxx = 0.1-<1) | xxx (xxx = 0.1-<1) |  | 
CCCCCCCCC(=O)N[C@@H](CCCCN)C(=O)N[C@@H](CCCCN)C(=O)NCCNC(=O)[C@H]1NC(=O)[C@H]2NC(=O)[C@H](NC(=O)[C@@H]3NC(=O)[C@H](CC(N)=O)NC(=O)[C@H](NC(=O)[C@@H](CC(C)C)NC)[C@H](O)c4ccc(c(Cl)c4)Oc4cc3cc(c4O[C@@H]3O[C@H](CO)[C@@H](O)[C@H](O)[C@H]3O[C@H]3C[C@](C)(N)[C@H](O)[C@H](C)O3)Oc3ccc(cc3Cl)[C@H]2O)c2ccc(O)c(c2)-c2c(O)cc(O)cc21 [MCC_005165] | xxx (xxx = 4-6) | x (x = >4) | xxxx (xxxx = 0.01-<0.1) | xxxx (xxxx = 0.01-<0.1) |  | 
CCCCCCCCCC(=O)N[C@@H](CCCCN)C(=O)N[C@@H](CCCCN)C(=O)NCCCNC(=O)[C@H]1NC(=O)[C@H]2NC(=O)[C@H](NC(=O)[C@@H]3NC(=O)[C@H](CC(N)=O)NC(=O)[C@H](NC(=O)[C@@H](CC(C)C)NC)[C@H](O)c4ccc(c(Cl)c4)Oc4cc3cc(c4O[C@@H]3O[C@H](CO)[C@@H](O)[C@H](O)[C@H]3O[C@H]3C[C@](C)(N)[C@H](O)[C@H](C)O3)Oc3ccc(cc3Cl)[C@H]2O)c2ccc(O)c(c2)-c2c(O)cc(O)cc21 [MCC_005084] | xxx (xxx = 4-6) | xx (xx = 1-4) | xxxx (xxxx = 0.01-<0.1) | xxxx (xxxx = 0.01-<0.1) |  | 
CCCCCCCCCC(=O)N[C@@H](CCCCN)C(=O)N[C@@H](CCCCN)C(=O)N1CCC(CNC(=O)[C@H]2NC(=O)[C@H]3NC(=O)[C@H](NC(=O)[C@@H]4NC(=O)[C@H](CC(N)=O)NC(=O)[C@H](NC(=O)[C@@H](CC(C)C)NC)[C@H](O)c5ccc(c(Cl)c5)Oc5cc4cc(c5O[C@@H]4O[C@H](CO)[C@@H](O)[C@H](O)[C@H]4O[C@H]4C[C@](C)(N)[C@H](O)[C@H](C)O4)Oc4ccc(cc4Cl)[C@H]3O)c3ccc(O)c(c3)-c3c(O)cc(O)cc32)CC1 [MCC_005489] | xxx (xxx = 4-6) | xx (xx = 1-4) | xxxx (xxxx = 0.01-<0.1) | xxxx (xxxx = 0.01-<0.1) |  | 
CCCCCCCCC(=O)N[C@@H](CCCCN)C(=O)N[C@@H](CCCCNC(=O)[C@H]1NC(=O)[C@H]2NC(=O)[C@H](NC(=O)[C@@H]3NC(=O)[C@H](CC(N)=O)NC(=O)[C@H](NC(=O)[C@@H](CC(C)C)NC)[C@H](O)c4ccc(c(Cl)c4)Oc4cc3cc(c4O[C@@H]3O[C@H](CO)[C@@H](O)[C@H](O)[C@H]3O[C@H]3C[C@](C)(N)[C@H](O)[C@H](C)O3)Oc3ccc(cc3Cl)[C@H]2O)c2ccc(O)c(c2)-c2c(O)cc(O)cc21)C(=O)O [MCC_005223] | x (x = 0-2) | x (x = >4) | xx (xx = 1-4) | xxx (xxx = 0.1-<1) |  | 
